# Laboratory results published in US20250020667A1, “DEVELOPMENT OF MICROBIAL BIOSENSORS FOR INTESTINAL INFLAMMATION” (Baylor College of Medicine, priority 2017, published 2025).
# Counter-ions that a name gives are not always drawn.
# Legend:
# [1] = tested on: L. reuteri ABC transporter promoter GFP biosensor; experiment: Metal complementation assay (metal added to sensors co-cultured with calprotectin); assay type: cell-based, Lactobacillus reuteri
# Procedure: Metal complementation assays—Mixes were similar to the calprotectin induction assays with the addition of zinc (II) sulfate, manganese (II) sulfate, or iron (II) chloride. Concentrations of metals were added in excess of 1×, 10×, and 100× the binding capacity of 40 ug/mL (1.4 uM) calprotectin. In total, 0, 4 uM, 40 uM, and 400 uM of zinc and iron were added and 0, 2 uM, 20 uM, and 200 uM of manganese was added. Slightly higher than equimolar amounts were added to correct for possible pipetting error. Cells were grown for the same amount of time as in the calprotectin induction assays.
# Flow cytometry—˜10-40 uL of cells were added to 1 mL of PBS sheath fluid and run through the flow cytometer for a total of 10000 events. Cells were thresholded by forward/side scatter, and.fsc files were analyzed with the FlowCal software, developed by the Jeff Tabor Lab. In short, FlowCal identifies the densest region of cells on the associated scatterplot, and analyzes the fluorescent output of 30% of the cells in this region so as to evaluate a homogenous dataset and remove possible outliers. […] In this case, GFP output is reported as molecules of equivalent fluorophores (MEF), and was evaluated on the FL1 channel.
# [2] = tested on: L. reuteri acyl carrier protein dehydratase promoter GFP biosensor; experiment: Induction of promoter-GFP biosensor, GFP by flow cytometry; assay type: cell-based, Lactobacillus reuteri; details: co-cultured with TPEN vs uninduced sensor
# Procedure: All constructs were assembled via the Gibson Reaction (NEBiosciences).
# All flow runs were performed in 96 well plates.
# TPEN Induction—TPEN, a synthetic zinc chelator, induction assays were performed as calprotectin induction, with TPEN replacing calprotectin. Growth condition were also identical. Media ratios differed. In the TPEN studies, 180 uL of media was used with 20 uL cells and 2 uL of TPEN in absolute ethanol.
# [3] = tested on: E. coli Nissle enterobactin synthase promoter GFP biosensor; experiment: as above; assay type: cell-based, Escherichia coli
# From the text: (§1) Initial Data. […] Sequences were obtained via Illumina NextSeq and mapped against E. coli Nissle 1917 reference genome.
# (§2) Initial test constructs consisted of the intergenic promoter regions for the following genes: E. coli Nissle—sulA, entCE (enterobactin synthase operon), ykgMO (paralog for L36/L31 ribosomal accessory protein), ABC Transporter (WP_000977398.1); L. reuteri—ABC Transporter operon (EGC15836.1), Acyl carrier protein dehydratase (EGC15031.1), argininosuccinate lyase (EGC15288.1). Each promoter region was cloned directly upstream of a green fluorescent protein cassette. For L. reuteri, the eGFP cassette was used while the sGFP cassette was used for E. coli. All constructs were assembled via the Gibson Reaction (NEBiosciences).
# [4] = tested on: E. coli Nissle L36/L31 ribosomal accessory protein promoter (ykgMO) GFP biosensor; experiment: as above; assay type: cell-based, Escherichia coli
# From the text: as §1, §2
# [5] = tested on: E. coli Nissle L36/L31 ribosomal accessory protein promoter GFP biosensor; details: sensors co-cultured with calprotectin
# [6] = tested on: L. reuteri acyl carrier protein dehydratase promoter GFP biosensor; details: co-cultured with 40 ug/mL calprotectin
# [7] = tested on: E. coli Nissle enterobactin synthase promoter GFP biosensor
# [8] = tested on: Lactobacillus reuteri ABC transporter promoter GFP sensor; details: 40 ug/mL calprotectin vs uninduced sensor
# From the text: as §2
# [9] = tested on: Lactobacillus reuteri PTA 6475; experiment: Minimum inhibitory concentration (MIC) assay, overnight growth, OD600; assay type: cell-based; details: L. reuteri
# Procedure: (§3) Minimum inhibitory concentration (MIC) assay—Escherichia coli Nissle 1917 and Lactobacillus reuteri PTA 6475 were used as vectors for biosensor construction. For both strains, bacteria was grown overnight in media (MRS broth for L. reuteri; LB broth for E. coli). From the overnight culture, 10^4 bacterial cells in 38 uL media (LDM4 for L. reuteri; LB broth for E. coli) were seeded into a 96 well-plate. 62 uL of calprotectin in buffer (20 mM Tris (pH 7.5), 100 mM NaCl, 10 mM beta-mercaptoethanol, 3 mM CaCl2) was added in 2-fold dilutions. Recombinant human calprotectin was supplied by Dr. Walter Chazin of Vanderbilt University. Bacteria was allowed to grow overnight, and OD600 values were taken the following morning.
# (§4) RNA Isolation—Sub-inhibitory concentrations of calprotectin were used for the calprotectin induction. […] Cells were grown overnight, and then back-diluted 1:100 into 5 mL of media (LDM4 for L. reuteri; LB Broth for E. coli). Cells were grown up to log phase, and then the sub-inhibitory amount of calprotectin was added to the tube in calprotectin buffer. Growth continued for 30 total minutes in the presence of the calprotectin, and then transcription was frozen by addition of ice cold methanol for L. reuteri and ice-cold ethanol for E. coli Nissle. Cells were collected via centrifugation, and then RNA was isolated using the QIAgen RNEasy kit. Slight modifications were included. For L. reuteri, mechanical cell-wall disruption was used via bead-beating. For E. coli, lysozyme/proteinase K was used to disrupt the gram-negative cell wall. RNA was quantified and tested for purity using a Nanodrop.
# (§5) Both prospective vector strains (Lactobacillus reuteri and Escherichia coli Nissle) were grown overnight in the presence of 2-fold dilutions of calprotectin in order to deduce minimum inhibitory concentrations of calprotectin on the microbes.
# [10] = tested on: Escherichia coli Nissle 1917; experiment: as above; assay type: cell-based; details: E. coli Nissle
# Procedure: as §3, §4, §5
# [11] = co-cultured with 1.5 uM TPEN vs media only
# [12] = co-cultured with 40 ug/mL calprotectin
# [13] = overnight growth, 2-fold dilutions
# [14] = 40 ug/mL calprotectin vs un-induced
molecule,measurement,setting,value
"O=S(=O)([O-])[O-].[Mn+2] [manganese, manganese (II) sulfate]",effect of added manganese on sensor activity,[1]; manganese at 100× binding capacity of 40 ug/mL calprotectin,did not fully ablate sensor activity
"c1ccc(CN(CCN(Cc2ccccn2)Cc2ccccn2)Cc2ccccn2)nc1 [TPEN, N,N,N′,N′-tetrakis(2-pyridinylmethyl)-1,2-ethanediamine]",fold increase in GFP expression,[2],2.5 fold
same,fold increase in GFP expression,[3]; [11],5.6 fold
same,fold increase in GFP expression,[4]; [11],4.5 fold
"[Zn+2] [zinc, zinc (II) sulfate]",effect of added zinc on calprotectin-induced increase in GFP expression,[5],abolishes the calprotectin-induced increase in GFP expression
same,zinc concentration sufficient to totally abolish promoter activity,[6],4 µM
same,zinc concentration sufficient to totally abolish promoter activity,[1]; [12],4 µM
same,zinc concentration sufficient to totally abolish promoter activity,[7]; [12],4 µM
same,effect of added zinc on calprotectin-induced increase in GFP expression,[7]; sensors co-cultured with calprotectin,abolishes the calprotectin-induced increase in GFP expression
"[Cl][Fe][Cl] [iron, iron (II) chloride]",iron excess required to turn off promoter activity,"[1]; × the binding capacity of 40 ug/mL calprotectin, possibly a cell survival issue",100 ×
"calprotectin: neutrophil-source antimicrobial peptide heterodimer that sequesters zinc, manganese and iron; recombinant human, supplied by Dr. Walter Chazin (protein, UniProt P05109 1-93; P06702 1-114, looked up) Protein S100-A8: MLTELEKALNSIIDVYHKYSLIKGNFHAVYRDDLKKLLETECPQYIRKKGADVWFKELDINTDGAVNFQEFLILVIKMGVAAHKKSHEESHKE Protein S100-A9: MTCKMSQLERNIETIINTFHQYSVKLGHPDTLNQGEFKELVRKDLQNFLKKENKNEKVIEHIMEDLDTNADKQLSFEEFIMLMARLTWASHEKMHEGDEGPGHHHKPGLGEGTP",fold increase in GFP expression,[8],4.93 fold
same,highest concentration that did not inhibit overnight growth (sub-inhibitory concentration),[9],15.625 µg/mL
same,minimum inhibitory concentration (growth inhibited at this concentration and above),[9]; [13],31.25 µg/mL
same,highest concentration that did not inhibit overnight growth (sub-inhibitory concentration),[10],125 µg/mL
same,minimum inhibitory concentration (growth inhibited at this concentration and above),[10]; [13],250 µg/mL
same,fold increase in GFP expression,[3]; [14],1.8 fold
same,fold increase in GFP expression,[4]; [14],2.6 fold
